Results on eight molecules are retold here after ChEMBL document CHEMBL5465560, “Selectivity Literature for EUbOPEN Chemogenomic Library” (2024).

Test [1] has as its target T1, Rho-associated protein kinase 2 (Homo sapiens, UniProt O75116). The test can be described thus: Selectivity interaction (KinomeScan (DiscoverX)) EUB0000695a ROCK2. The settings on record: at 100 nM.
The target in test [2] is T2, Histone-lysine N-methyltransferase SETD7 (Homo sapiens) (UniProt Q8WTS6).
T2 sequence (whole entry): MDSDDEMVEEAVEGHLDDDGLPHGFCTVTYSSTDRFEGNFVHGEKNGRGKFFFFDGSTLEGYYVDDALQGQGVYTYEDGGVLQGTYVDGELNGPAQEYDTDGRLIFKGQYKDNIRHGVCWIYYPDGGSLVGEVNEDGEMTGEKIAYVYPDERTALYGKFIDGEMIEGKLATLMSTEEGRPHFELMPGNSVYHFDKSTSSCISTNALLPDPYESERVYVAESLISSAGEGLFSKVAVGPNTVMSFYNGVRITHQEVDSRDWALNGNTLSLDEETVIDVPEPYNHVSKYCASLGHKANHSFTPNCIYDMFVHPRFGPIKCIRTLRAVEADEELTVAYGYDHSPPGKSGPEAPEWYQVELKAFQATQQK
The following applies: at 1 µM.

Test [3] has as its target Serine/threonine-protein kinase 38 (Homo sapiens) (UniProt Q15208). The test can be described thus: Selectivity interaction (KinomeScan (DiscoverX)) EUB0000045b STK38.
Test [4] deals with Receptor tyrosine-protein kinase erbB-4 (Homo sapiens, UniProt Q15303). Kind of test: Selectivity interaction (Kinase panel (literature)) EUB0001199aCl ERBB4. The following applies: at 1 µM.
Test [5] addresses T1, Rho-associated protein kinase 2. The test can be described thus: Selectivity interaction (Ambit KINOMEscan and KiNATiv profiling in Jurkat cells) EUB0000090b ROCK2. Type of test: cell-based. The following applies: at 1 µM.
For test [6], the target named is T3, Aurora kinase A (Homo sapiens) (UniProt O14965).
T3 sequence (whole entry): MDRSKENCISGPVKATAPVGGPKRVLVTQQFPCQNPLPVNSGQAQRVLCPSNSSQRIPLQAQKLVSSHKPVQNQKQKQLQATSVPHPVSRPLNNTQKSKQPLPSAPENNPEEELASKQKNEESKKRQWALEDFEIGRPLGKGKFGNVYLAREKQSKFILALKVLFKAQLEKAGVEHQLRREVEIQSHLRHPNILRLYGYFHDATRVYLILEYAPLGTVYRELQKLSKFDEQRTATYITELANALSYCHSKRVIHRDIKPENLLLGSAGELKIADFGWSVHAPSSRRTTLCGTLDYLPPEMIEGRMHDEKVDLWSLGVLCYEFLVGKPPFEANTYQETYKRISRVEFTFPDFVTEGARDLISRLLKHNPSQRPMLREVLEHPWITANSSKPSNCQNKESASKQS
The test can be described thus: Selectivity interaction (Kinase panel (Carna Biosciences)) EUB0001542aTs STK6. The following applies: at 1 µM.

Test [7] deals with T4, Histone-lysine N-methyltransferase NSD3 (Homo sapiens) (UniProt Q9BZ95).
T4 sequence (whole entry): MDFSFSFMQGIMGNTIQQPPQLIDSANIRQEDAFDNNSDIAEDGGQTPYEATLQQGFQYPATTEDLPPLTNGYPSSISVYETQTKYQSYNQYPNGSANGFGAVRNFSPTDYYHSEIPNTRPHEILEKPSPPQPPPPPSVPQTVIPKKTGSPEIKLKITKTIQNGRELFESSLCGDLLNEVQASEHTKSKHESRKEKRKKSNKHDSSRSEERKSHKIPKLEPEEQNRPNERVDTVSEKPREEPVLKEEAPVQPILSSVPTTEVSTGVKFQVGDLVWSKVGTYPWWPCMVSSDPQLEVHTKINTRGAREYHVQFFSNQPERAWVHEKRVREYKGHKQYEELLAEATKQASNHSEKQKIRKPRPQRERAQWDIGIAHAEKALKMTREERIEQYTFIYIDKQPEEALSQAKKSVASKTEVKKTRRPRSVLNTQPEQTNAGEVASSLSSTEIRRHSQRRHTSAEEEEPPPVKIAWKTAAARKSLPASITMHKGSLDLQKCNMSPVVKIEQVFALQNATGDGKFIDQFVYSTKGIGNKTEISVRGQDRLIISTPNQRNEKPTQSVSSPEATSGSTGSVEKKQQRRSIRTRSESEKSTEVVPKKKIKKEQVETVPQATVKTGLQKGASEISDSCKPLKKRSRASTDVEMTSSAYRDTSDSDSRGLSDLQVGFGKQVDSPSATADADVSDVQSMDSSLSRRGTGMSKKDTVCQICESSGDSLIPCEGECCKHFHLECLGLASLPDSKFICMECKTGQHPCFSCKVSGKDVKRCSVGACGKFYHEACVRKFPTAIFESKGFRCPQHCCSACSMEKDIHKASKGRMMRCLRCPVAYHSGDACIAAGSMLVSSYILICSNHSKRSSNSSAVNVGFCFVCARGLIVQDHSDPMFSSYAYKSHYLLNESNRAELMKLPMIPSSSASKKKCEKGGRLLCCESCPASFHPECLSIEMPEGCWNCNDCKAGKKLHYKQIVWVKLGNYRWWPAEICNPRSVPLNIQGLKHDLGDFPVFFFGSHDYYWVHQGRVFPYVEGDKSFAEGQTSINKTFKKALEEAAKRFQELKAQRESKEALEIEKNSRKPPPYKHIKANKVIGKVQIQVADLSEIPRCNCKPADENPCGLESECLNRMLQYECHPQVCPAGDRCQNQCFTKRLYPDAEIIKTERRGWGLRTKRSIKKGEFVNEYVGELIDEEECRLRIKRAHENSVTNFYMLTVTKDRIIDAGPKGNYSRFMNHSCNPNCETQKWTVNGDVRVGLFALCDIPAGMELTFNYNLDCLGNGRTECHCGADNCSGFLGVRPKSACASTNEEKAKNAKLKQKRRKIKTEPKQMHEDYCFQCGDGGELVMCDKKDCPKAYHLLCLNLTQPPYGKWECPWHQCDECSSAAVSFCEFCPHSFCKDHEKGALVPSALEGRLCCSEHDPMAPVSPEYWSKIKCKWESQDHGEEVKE
Kind of test: Selectivity interaction (PWWP, WD40, and Tudor domain panel (DSLS measurements, literature)) EUB0000270b NSD3.

The target in test [8] is Ribosomal protein S6 kinase alpha-1 (Homo sapiens, UniProt Q15418). Kind of test: Selectivity interaction (KinomeScan (DiscoverX)) EUB0000618a RPS6KA1. The following applies: at 10 µM.
Ribosomal protein S6 kinase alpha-1, sequence (Q15418 whole entry): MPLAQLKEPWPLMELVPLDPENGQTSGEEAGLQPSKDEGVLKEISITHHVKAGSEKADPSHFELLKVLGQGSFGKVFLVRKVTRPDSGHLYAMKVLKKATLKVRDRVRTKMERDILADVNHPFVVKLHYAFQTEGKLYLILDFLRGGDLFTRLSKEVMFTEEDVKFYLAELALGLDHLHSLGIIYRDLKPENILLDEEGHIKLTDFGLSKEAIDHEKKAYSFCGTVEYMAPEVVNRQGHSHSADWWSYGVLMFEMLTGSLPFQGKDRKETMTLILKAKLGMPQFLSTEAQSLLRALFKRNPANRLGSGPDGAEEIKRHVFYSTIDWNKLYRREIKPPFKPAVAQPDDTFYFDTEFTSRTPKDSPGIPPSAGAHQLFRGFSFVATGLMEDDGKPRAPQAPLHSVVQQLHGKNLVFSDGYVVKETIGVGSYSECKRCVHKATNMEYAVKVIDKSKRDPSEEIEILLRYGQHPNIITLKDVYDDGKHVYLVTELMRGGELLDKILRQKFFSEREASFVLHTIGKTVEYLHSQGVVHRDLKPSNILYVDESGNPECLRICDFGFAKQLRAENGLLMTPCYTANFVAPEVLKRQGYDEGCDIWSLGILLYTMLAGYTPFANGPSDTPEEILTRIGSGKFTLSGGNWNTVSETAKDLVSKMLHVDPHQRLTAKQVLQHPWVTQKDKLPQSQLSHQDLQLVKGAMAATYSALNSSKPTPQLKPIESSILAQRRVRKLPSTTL

T1 sequence (O75116 whole entry, looked up): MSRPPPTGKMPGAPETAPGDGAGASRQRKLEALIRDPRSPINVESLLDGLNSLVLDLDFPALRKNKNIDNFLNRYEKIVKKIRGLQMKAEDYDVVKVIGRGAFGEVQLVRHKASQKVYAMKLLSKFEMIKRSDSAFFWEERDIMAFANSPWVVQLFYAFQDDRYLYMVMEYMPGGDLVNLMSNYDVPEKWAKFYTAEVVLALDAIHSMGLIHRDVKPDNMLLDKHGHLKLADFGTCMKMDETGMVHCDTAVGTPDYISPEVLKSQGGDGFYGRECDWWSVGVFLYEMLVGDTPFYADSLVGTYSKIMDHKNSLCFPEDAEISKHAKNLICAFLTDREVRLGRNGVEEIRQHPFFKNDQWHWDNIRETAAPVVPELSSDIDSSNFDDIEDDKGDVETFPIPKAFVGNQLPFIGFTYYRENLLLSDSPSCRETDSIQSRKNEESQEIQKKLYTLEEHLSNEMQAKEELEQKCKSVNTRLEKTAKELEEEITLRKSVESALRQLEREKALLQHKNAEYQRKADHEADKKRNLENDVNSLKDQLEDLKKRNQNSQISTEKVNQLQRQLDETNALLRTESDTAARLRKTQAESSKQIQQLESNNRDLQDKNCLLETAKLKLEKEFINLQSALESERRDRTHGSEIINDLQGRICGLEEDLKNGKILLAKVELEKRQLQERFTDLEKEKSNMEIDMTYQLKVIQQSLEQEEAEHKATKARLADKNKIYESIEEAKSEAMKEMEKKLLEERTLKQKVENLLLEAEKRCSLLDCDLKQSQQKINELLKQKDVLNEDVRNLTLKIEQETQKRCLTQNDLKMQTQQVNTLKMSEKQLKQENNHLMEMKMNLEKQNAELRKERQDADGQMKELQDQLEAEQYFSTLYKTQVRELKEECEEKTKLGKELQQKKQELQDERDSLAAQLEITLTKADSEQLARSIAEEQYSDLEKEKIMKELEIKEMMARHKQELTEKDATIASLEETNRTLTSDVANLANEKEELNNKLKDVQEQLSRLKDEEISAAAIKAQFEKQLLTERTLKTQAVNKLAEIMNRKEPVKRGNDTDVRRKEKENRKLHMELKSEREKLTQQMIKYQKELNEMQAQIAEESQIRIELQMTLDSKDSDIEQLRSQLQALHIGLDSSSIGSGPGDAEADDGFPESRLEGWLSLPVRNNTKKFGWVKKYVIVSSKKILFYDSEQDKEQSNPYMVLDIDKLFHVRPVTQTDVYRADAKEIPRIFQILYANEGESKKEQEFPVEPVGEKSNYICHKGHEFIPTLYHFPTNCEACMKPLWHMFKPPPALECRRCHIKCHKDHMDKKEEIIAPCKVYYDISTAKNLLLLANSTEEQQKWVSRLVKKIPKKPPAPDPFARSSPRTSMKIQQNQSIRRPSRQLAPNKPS
Serine/threonine-protein kinase 38 (Homo sapiens), sequence (Q15208 2-465 limits assumed): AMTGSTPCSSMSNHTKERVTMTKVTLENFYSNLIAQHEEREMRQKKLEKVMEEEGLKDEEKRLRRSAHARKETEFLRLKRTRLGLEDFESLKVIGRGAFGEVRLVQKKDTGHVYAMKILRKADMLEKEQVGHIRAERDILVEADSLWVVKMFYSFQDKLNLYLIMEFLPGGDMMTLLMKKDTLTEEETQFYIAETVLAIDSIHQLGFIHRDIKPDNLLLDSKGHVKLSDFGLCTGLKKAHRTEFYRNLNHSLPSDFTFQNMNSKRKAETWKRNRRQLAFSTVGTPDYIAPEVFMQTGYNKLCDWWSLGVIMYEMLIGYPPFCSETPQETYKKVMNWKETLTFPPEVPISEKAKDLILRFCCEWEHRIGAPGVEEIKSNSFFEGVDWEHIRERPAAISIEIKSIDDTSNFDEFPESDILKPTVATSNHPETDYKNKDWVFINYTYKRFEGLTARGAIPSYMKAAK
Receptor tyrosine-protein kinase erbB-4, sequence (Q15303 whole entry): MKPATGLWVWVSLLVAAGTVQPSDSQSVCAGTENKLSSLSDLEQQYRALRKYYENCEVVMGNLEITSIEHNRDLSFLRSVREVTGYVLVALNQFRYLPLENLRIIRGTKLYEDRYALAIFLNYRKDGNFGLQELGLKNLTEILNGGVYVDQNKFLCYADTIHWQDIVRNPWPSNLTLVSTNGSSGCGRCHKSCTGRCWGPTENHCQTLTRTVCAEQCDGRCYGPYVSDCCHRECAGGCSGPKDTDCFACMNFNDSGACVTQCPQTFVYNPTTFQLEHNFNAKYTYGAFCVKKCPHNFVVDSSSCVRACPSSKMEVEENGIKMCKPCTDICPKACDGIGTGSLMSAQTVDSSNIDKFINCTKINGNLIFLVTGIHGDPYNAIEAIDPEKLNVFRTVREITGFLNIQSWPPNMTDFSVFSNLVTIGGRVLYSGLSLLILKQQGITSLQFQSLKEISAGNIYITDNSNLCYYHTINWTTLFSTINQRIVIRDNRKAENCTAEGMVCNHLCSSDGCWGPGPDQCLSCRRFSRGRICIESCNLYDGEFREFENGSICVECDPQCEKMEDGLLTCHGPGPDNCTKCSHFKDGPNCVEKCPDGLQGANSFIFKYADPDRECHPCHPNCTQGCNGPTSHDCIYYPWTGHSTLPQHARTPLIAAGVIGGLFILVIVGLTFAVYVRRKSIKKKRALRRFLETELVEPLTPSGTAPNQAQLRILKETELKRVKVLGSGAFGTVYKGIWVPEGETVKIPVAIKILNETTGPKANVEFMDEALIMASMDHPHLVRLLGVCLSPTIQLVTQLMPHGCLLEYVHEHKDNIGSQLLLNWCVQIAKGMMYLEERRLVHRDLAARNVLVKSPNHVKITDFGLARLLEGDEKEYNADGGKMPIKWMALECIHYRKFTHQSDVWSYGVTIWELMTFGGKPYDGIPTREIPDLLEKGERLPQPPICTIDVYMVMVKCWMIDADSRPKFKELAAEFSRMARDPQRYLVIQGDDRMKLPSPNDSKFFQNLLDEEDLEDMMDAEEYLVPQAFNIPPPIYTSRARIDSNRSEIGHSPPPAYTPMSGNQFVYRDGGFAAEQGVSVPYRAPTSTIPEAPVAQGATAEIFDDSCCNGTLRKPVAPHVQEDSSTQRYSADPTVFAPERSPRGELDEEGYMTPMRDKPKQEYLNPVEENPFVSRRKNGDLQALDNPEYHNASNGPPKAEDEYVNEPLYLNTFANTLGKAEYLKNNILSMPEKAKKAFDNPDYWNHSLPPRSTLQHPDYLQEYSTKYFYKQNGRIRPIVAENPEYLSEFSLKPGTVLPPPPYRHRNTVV

With `Cc1cc(F)c(C(=O)Nc2cccc(-c3nncn3C(C)C)n2)cc1-n1cnc(C2CC2)c1`, in test [1], the % of control was determined as 81%.

`CNCCN1CCC(c2cc(CN(C)C(=O)c3cccc(Oc4ccccc4)c3)ccn2)CC1` yielded a % activity in test [2] greater than 90%. As for `C=CC(=O)Nc1cc(-n2c(=O)ccc3cnc4ccc(-c5ccc(NS(C)(=O)=O)cc5)cc4c32)ccc1C`, the % of control in test [3] (at 1 µM) and in test [3] (at 10 µM) was 100% in each case. Molecule `CN1Cc2nccc(-c3cn(C)nc3-c3ccc(F)cc3)c2C1=O` had a % of inhibition in test [4] of 15%. On to `CN(C)C/C=C/C(=O)Nc1ccc(C(=O)N2CCCC(Nc3ncc(Cl)c(-c4c[nH]c5ccccc45)n3)C2)cc1` (centres undefined), for which the % of control in test [5] came to 69%. `Cn1cc(Nc2nccc(N3CC4CCC(C3)N4C(=O)[C@@H]3CC3(F)F)n2)cn1` returned a % of inhibition in test [6] of 62%. Regarding `Cc1cc(CN)cc(C)c1-c1ncn(C)c1-c1cncn1C`, the dTagg in test [7] worked out at 0.5 K.

On to `O[C@H]1CC[C@H](Nc2ncc3nc(Nc4c(F)cc(F)cc4F)n([C@H]4CCOC4)c3n2)CC1`, for which the % of control in test [8] is 98%.
